Experimental data from publication PMC3253143 (Nature, 2011).

Target: EmrE (Escherichia coli, UniProt P23895)
Experiment: biochemical

EmrE, sequence (P23895 whole entry): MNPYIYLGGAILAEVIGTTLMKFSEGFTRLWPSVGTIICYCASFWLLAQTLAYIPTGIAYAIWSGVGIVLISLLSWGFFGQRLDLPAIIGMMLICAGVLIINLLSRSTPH

c1ccc([P+](c2ccccc2)(c2ccccc2)c2ccccc2)cc1 [TPP^+]
Kd: 0.12 ± 0.012 µM
